From PubChem BioAssay AID504606 (National Center for Advancing Translational Sciences (NCATS), 2011)
Converted amounts (≈) assume the structure as drawn.

System: kinetic aqueous solubility, PBS pH 7.4, LC-UV/MS
Assay: Inhibitors of HPGD: Aqueous Solubility Profiling
Settings: hits give high values

solubility [µM] | SMILES
3 (≈ 0.958 µg/mL) | Cc1cccc(-n2cnc3cc(C(=O)N4CCCCC4)ccc32)c1
35.9 (≈ 11 µg/mL) | Cc1cc(-c2nnc3n2CCCCC3)c(C)n1-c1ccccc1
